Experimental data published in US20190047966A1, “NOVEL COMPOUND AND PHARMACOLOGICALLY ACCEPTABLE SALT THEREOF” (MEIJI SEIKA PHARMA CO., LTD., priority 2016, published 2019).
Structures can show the parent of a compound that is named as a salt.

Key:
[1] = target: T1, human histamine H4 receptor (Homo sapiens, UniProt Q9H3N8); assay: Evaluation of Human H4 Receptor Affinity ([3H]histamine binding); conditions: inhibition constant Ki, CHO-K1 membrane preparation, read-out: Evaluation of H4 Receptor Affinity
T1 construct: purchased PerkinElmer Inc; host or cells: CHO-K1
Experimental: Test Example 2: Evaluation of Human H4 Receptor Affinity
Membrane preparation from recombinant CHO-K1 cell expressing the human histamine H4 receptor (PerkinElmer Inc.), radiolabeled ligand 8.2 nM [^3H]histamine (PerkinElmer Inc.), and compounds dissolved in DMSO were reacted at 25° C. for 90 minutes in a buffering solution containing 50 mM tris-hydrochloric acid, pH 7.4, and 1.25 mM EDTA on a 96 well plate, followed by filtration using a GF/B filter (PerkinElmer Inc.) pretreated with 0.3% polyethylenimine. The residue was washed four times with a buffering solution of 50 mM tris-hydrochloric acid, pH 7.4. Thereafter, a scintillation cocktail (MicroScint 20: PerkinElmer Inc.) was added to the GF/B filter, and the radioactivity of each well was measured using a liquid scintillation counter for 96-well (TopCount: PerkinElmer Inc.). The non-specific binding was evaluated in the presence of 1.0 μM histamine. The inhibition constant Ki was calculated from the 50% inhibitory concentration (IC50 value) obtained in each test and the Kd value (5.7 nM) unique to this assay system, according to the Cheng-Prusoff equation.

[2] = target: human histamine H1 receptor (Homo sapiens, UniProt P35367); assay: Evaluation of Human H1 Receptor Affinity ([3H]pyrilamine binding); design: purchased PerkinElmer Inc; host or cells: CHO-K1; conditions: inhibition constant Ki, CHO-K1 membrane preparation
Experimental: Test Example 1: Evaluation of Human H1 Receptor Affinity
Membrane preparation from recombinant CHO-K1 cell expressing the human histamine H1 receptor (PerkinElmer Inc.), radiolabeled ligand 1.2 nM [^3H]pyrilamine (PerkinElmer Inc.), and test compounds dissolved in DMSO were reacted at 25° C. for 3 hours in a buffering solution containing 50 mM tris-hydrochloric acid, pH 7.4, and 5 mM magnesium chloride on a 96 well plate, followed by filtration using a GF/B filter (PerkinElmer Inc.) pretreated with 0.3% polyethylenimine. The residue was washed four times with a buffering solution of 50 mM tris-hydrochloric acid, pH 7.4. Thereafter, a scintillation cocktail (MicroScint 20: PerkinElmer Inc.) was added to the GF/B filter, and the radioactivity of each well was measured using a liquid scintillation counter for 96-well (TopCount: PerkinElmer Inc.). The non-specific binding was evaluated in the presence of 1.0 μM pyrilamine. The inhibition constant Ki was calculated from the 50% inhibitory concentration (IC50 value) obtained in each test and the Kd value (1.1 nM) unique to this assay system, according to the Cheng-Prusoff equation.

Sequence of human histamine H1 receptor (P35367 whole entry): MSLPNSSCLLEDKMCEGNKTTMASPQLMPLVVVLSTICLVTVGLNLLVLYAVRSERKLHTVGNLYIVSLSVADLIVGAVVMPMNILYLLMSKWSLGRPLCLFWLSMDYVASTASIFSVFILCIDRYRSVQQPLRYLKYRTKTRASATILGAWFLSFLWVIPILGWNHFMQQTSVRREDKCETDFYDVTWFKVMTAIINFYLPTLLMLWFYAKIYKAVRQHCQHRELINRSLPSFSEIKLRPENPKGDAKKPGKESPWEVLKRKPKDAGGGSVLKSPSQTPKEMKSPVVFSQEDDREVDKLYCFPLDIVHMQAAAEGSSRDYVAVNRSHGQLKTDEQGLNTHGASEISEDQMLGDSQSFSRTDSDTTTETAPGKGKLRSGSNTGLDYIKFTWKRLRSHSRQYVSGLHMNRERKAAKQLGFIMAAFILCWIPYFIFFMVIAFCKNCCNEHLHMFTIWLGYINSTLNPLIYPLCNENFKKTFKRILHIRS

| SMILES | Ki [1] | Ki [2] |
| --- | --- | --- |
| Nc1nc2c(c(N3CCN(CCOCC45C6C7C4C4C5C6C74C(=O)O)CC3)n1)CCc1cc(OCc3ccc(Cl)cc3)ccc1-2 (stereo not shown) [Example 151, 4-((2-(4-(2-amino-8-((4-chlorobenzyl)oxy)-5,6-dihydrobenzo[h]quinazolin-4-yl)piperazin-1-yl)ethoxy)methyl)pentacyclo[4.2.0.0^2.5.0^3.8.0^4.7]octane-1-carboxylic acid dihydrochloride] | < 100 nM | < 100 nM |
| CN1CCN(c2nc(N)nc3c2CCc2cc(OCc4ccc(OC(F)(F)F)cc4)ccc2-3)CC1 [Example 198, 4-(4-methylpiperazin-1-yl)-8-((4-(trifluoromethoxy)benzyl)oxy)-5,6-dihydrobenzo[h]quinazolin-2-amine] | < 100 nM | < 100 nM |
| Nc1nc2c(c(N3CCN(CC(=O)NCCCC(=O)O)CC3)n1)CCc1cc(OCc3ccc(Cl)cc3)ccc1-2 [Example 125, 4-(2-(4-(2-amino-8-((4-chlorobenzyl)oxy)-5,6-dihydrobenzo[h]quinazolin-4-yl)piperazin-1-yl)acetamido)butanoic acid dihydrochloride] | 100 to 500 nM | < 100 nM |
| COC(=O)CC1CN(C(=O)OCCN2CCN(c3nc(N)nc4c3CCc3cc(OCc5ccc(Cl)cc5)ccc3-4)CC2)C1 [Example 149, 2-(4-(2-amino-8-((4-chlorobenzyl)oxy)-5,6-dihydrobenzo[h]quinazolin-4-yl)piperazin-1-yl)ethyl 3-(2-methoxy-2-oxoethyl)azetidine-1-carboxylate] | 100 to 500 nM | < 100 nM |
| COC(=O)C1CN(C(=O)CCCN2CCN(c3nc(N)nc4c3CCc3cc(OCc5ccc(Cl)cc5)ccc3-4)CC2)C1 [Example 117, methyl 1-(4-(4-(2-amino-8-((4-chlorobenzyl)oxy)-5,6-dihydrobenzo[h]quinazolin-4-yl)piperazin-1-yl)butanoyl)azetidine-3-carboxylate] | < 100 nM | 100 to 500 nM |
| Nc1nc2c(c(N3CCN(CCCCOC4CC(C(=O)O)C4)CC3)n1)CCc1cc(OCc3ccc(Cl)cc3)ccc1-2 (stereo not shown) [Example 141, 3-(4-(4-(2-amino-8-((4-chlorobenzyl)oxy)-5,6-dihydrobenzo[h]quinazolin-4-yl)piperazin-1-yl)butoxy)cyclobutane-1-carboxylic acid dihydrochloride] | 100 to 500 nM | < 100 nM |
| CN1CCN(c2nc(N)nc3c2oc2ccc(OCc4ccccc4)cc23)CC1 [Example 203, 8-(benzyloxy)-4-(4-methylpiperazin-1-yl)benzofuro[3,2-d]pyrimidin-2-amine] | < 100 nM | < 100 nM |
| COC(=O)c1ccc(COCCN2CCN(c3nc(N)nc4c3CCc3cc(OCc5ccc(Cl)cc5)ccc3-4)CC2)cc1 [128(a), methyl 4-((2-(4-(2-amino-8-((4-chlorobenzyl)oxy)-5,6-dihydrobenzo[h]quinazolin-4-yl)piperazin-1-yl)ethoxy)methyl)benzoate] | 100 to 500 nM | < 100 nM |
| Nc1nc2c(c(N3CCN(CCOC[C@H]4CC[C@@H](C(=O)O)C4)CC3)n1)CCc1cc(OCc3ccc(OC(F)(F)F)cc3)ccc1-2 (relative stereo) [Example 155] | < 100 nM | < 100 nM |
| Nc1nc2c(c(N3CCNCC3)n1)CCc1cc(NS(=O)(=O)c3ccc(OC(F)(F)F)cc3)ccc1-2 [Example 192, N-(2-amino-4-(4-piperazin-1-yl)-5,6-dihydrobenzo[h]quinazolin-8-yl)-4-(trifluoromethoxy)benezenesulfonamide hydrochloride] | < 100 nM | < 100 nM |
| Nc1nc2c(c(N3CCN(CCO[C@H]4C[C@@H](C(N)=O)C4)CC3)n1)CCc1cc(OCc3ccc(OC(F)(F)F)cc3)ccc1-2 [Example 33, cis 3-(2-(4-(2-amino-8-((4-(trifluoromethoxy)benzyl)oxy)-5,6-dihydrobenzo[h]quinazolin-4-yl)piperazin-1-yl)ethoxy)cyclobutane-1-carboxamide] | < 100 nM | < 100 nM |

Results, then the compound that gave them:

| Ki [1] | Ki [2] | SMILES |
| --- | --- | --- |
| 100 to 500 nM | < 100 nM | Nc1nc2c(c(N3CCN(CCOCCOCC(=O)O)CC3)n1)CCc1cc(OCc3ccccc3)ccc1-2 [Example 119, 2-(2-(2-(4-(2-amino-8-(benzyloxy)-5,6-dihydrobenzo[h]quinazolin-4-yl)piperazin-1-yl)ethoxy)ethoxy)acetic acid bis(trifluoroacetate)] |
| 100 to 500 nM | < 100 nM | Nc1nc2c(c(N3CCN(CCOC[C@@H]4CC[C@H](C(=O)O)O4)CC3)n1)CCc1cc(OCc3ccc(Cl)cc3)ccc1-2 (relative stereo) [Example 171, cis-5-((2-(4-(2-amino-8-((4-chlorobenzyl)oxy)-5,6-dihydrobenzo[h]quinazolin-4-yl)piperazin-1-yl)ethoxy)methyl)tetrahydrofuran-2-carboxylic acid] |
| 100 to 500 nM | < 100 nM | CCOC(=O)C1(C#N)CCC(COCCN2CCN(c3nc(N)nc4c3CCc3cc(OCc5ccc(Cl)cc5)ccc3-4)CC2)CC1 (stereo not drawn) [160(a), ethyl trans- or cis-4-((2-(4-(2-amino-8-((4-chlorobenzyl)oxy)-5,6-dihydrobenzo[h]quinazolin-4-yl)piperazin-1-yl)ethoxy)methyl)-1-cyanocyclohexane-1-carboxylate] |
| < 100 nM | < 100 nM | Nc1nc2c(c(N3CCNCC3)n1)CCc1cc(OCc3ccc(OC(F)(F)F)cc3)ccc1-2 [Example 6, 4-(piperazin-1-yl)-8-((4-(trifluoromethoxy)benzyl)oxy)-5,6-dihydrobenzo[h]quinazolin-2-amine] |
| 100 to 500 nM | 100 to 500 nM | CN1CCN(c2nc(N)nc3c2CCc2cc(NS(=O)(=O)c4ccccc4)ccc2-3)CC1 [Example 41, N-(2-amino-4-(4-methylpiperazin-1-yl)-5,6-dihydrobenzo[h]quinazolin-8-yl)benzenesulfonamide] |
| < 100 nM | 100 to 500 nM | CN(C)C1CCN(c2nc(N)nc3c2CCc2cc(OCc4ccccc4)ccc2-3)CC1 [Example 104, 8-(benzyloxy)-4-(4-(dimethylamino)piperidin-1-yl)-5,6-dihydrobenzo[h]quinazolin-2-amine] |
| 100 to 500 nM | < 100 nM | Nc1nc2c(c(N3CCN(CCOCCn4ccc(C(=O)O)n4)CC3)n1)CCc1cc(OCc3ccc(Cl)cc3)ccc1-2 [Example 138, 1-(2-(2-(4-(2-amino-8-((4-chlorobenzyl)oxy)-5,6-dihydrobenzo[h]quinazolin-4-yl)piperazin-1-yl)ethoxy)ethyl)-1H-pyrazole-3-carboxylic acid dihydrochloride] |
| < 100 nM | < 100 nM | COC(=O)COCCOCCN1CCN(c2nc(N)nc3c2CCc2cc(OCc4ccc(Cl)cc4)ccc2-3)CC1 [11(a), methyl 2-(2-(2-(4-(2-amino-8-((4-chlorobenzyl)oxy)-5,6-dihydrobenzo[h]quinazolin-4-yl)piperazin-1-yl)ethoxy)ethoxy)acetate] |
| < 100 nM | < 100 nM | COC(=O)c1ccc(COCCN2CCN(c3nc(N)nc4c3CCc3cc(OCc5ccc(Cl)cc5)ccc3-4)CC2)o1 [127(a), methyl 5-((2-(4-(2-amino-8-((4-chlorobenzyl)oxy)-5,6-dihydrobenzo[h]quinazolin-4-yl)piperazin-1-yl)ethoxy)methyl)furan-2-carboxylate] |
| < 100 nM | < 100 nM | Nc1nc2c(c(N3CCN(CCOC4CC5C(C4)C5C(=O)O)CC3)n1)CCc1cc(OCc3ccc(OC(F)(F)F)cc3)ccc1-2 (mixture of isomers) [Example 35, 3-(2-(4-(2-amino-8-((4-(trifluoromethoxy)benzyl)oxy)-5,6-dihydrobenzo[h]quinazolin-4-yl)piperazin-1-yl)ethoxy)bicyclo[3.1.0]hexane-6-carboxylic acid] |
| 100 to 500 nM | < 100 nM | Nc1nc2c(c(N3CCN(CCOc4ccccc4CC(=O)O)CC3)n1)CCc1cc(OCc3ccc(Cl)cc3)ccc1-2 [Example 136, 2-(2-(2-(4-(2-amino-8-((4-chlorobenzyl)oxy)-5,6-dihydrobenzo[h]quinazolin-4-yl)piperazin-1-yl)ethoxy)phenyl)acetic acid dihydrochloride] |
| < 100 nM | < 100 nM | COC(=O)[C@@H]1CC[C@H](COCCN2CCN(c3nc(N)nc4c3CCc3cc(OCc5ccc(Cl)cc5)ccc3-4)CC2)C1 (relative stereo) [153(a), methyl cis-3-((2-(4-(2-amino-8-((4-chlorobenzyl)oxy)-5,6-dihydrobenzo[h]quinazolin-4-yl)piperazin-1-yl)ethoxy)methyl)cyclopentane-l-carboxylate] |
